Source: US20190151229A1, “USE OF AN ESSENTIAL OIL OF EVERLASTING FLOWER IN ORDER TO INCREASE OR RESTORE TACTILE PERCEPTION” (LABORATOIRES M&L, priority 2016, published 2019)

Test system: human sensory neurons
Assay: Effect on neurite growth in co-culture of human sensory neurons and keratinocytes
Format: cell-based
Settings: NGF at 50 ng/ml, 6 days, vs control medium, p<0.05
Experimental: Sensory neurons are derived from iPS cells (induced Pluripotent Stem cells) which are themselves obtained from human fibroblasts. The iPSs were seeded into six-well plates coated with a thin layer of Matrigel® (Corning) in a proportion of 250 000 cells per well in a differentiation medium consisting of DMEM-F12 (Panbiotech) supplemented with 10% of Knockout Serum Replacement (KSR, Life technologies), 5 μM of CHIR 99021 (Tocris), 0.1 μM of retinoic acid (Sigma), 1 μg/ml of EPO (Erythropoietin; Peprotech), a cocktail of central differentiation pathway inhibitors and 1% of PS antibiotics (Penicilin-Streptomycin; Panbiotech). The cells were maintained in culture for 6 days at 37° C. and 5% CO2. The culture medium was changed every 2 days. Under these culture conditions, the iPSs differentiate into human sensory neurons.
At this stage, the cells were dissociated using accutase (Sigma Aldrich) for 10 minutes at 37° C. The reaction was stopped by adding culture medium. The cell suspension was centrifuged for 5 minutes at 1200 rpm. […]
Twenty photographs per culture well were taken with the automatic microscope (InCell 2000; GE Healthcare) at a ×20 magnification and the cell bodies of the sensory neurons were counted. […]

Substance: NGF: reference molecule; nerve growth factor, naturally present in the epithelium, known to stimulate neurite extension in vitro
- increase in the length of the projections of the human sensory neurons: +22.8%
